Reference: PubChem BioAssay AID1996
In brackets after ≈: the same amount, converted by molar mass.

Conditions: buffer; pH 7.4; 200.0 µM

Row | Compound | solubility kinetic [µg/mL]
1 | CC1(C)CC2(CCO1)C(Nc1ccccc1)=NC(=S)N2c1ccccc1 (stereo not given) | < 0.3
2 | Br.C(CCCN1CCCCC1)CCN1CCCCC1 | 61.8
3 | Cc1ccc(NC(=O)CN2CCN(C(=O)c3ccco3)CC2)cc1 | 47.8 (≈ 146 µM)
4 | O=C(NCCN1CCCCC1)Nc1ccccc1Cl | > 42.3
5 | Cc1ccccc1NC(=O)CCl | 26.2 (≈ 143 µM)
6 | O=C(NCc1cnn(-c2ccccc2)c1)C1CCC(=O)N(C2CC2)C1 (stereo not given) | > 50.8
7 | COc1ccccc1CCC(=O)NNC(=O)c1ccccc1 | > 44.8
8 | Cc1c(N(C)CS(=O)(=O)O)c(=O)n(-c2ccccc2)n1C.[Na] | > 50.2
9 | C=C(C)CN(Cc1ccccc1)C(=S)Nc1ccccc1 | 1.9 (≈ 6.41 µM)
10 | CC(N=C1NC(C)(C)Cc2ccccc21)C(=O)O (stereo not given) | 33.2 (≈ 135 µM)
11 | CCN(C(=O)COC(=O)/C=C/c1ccc(F)cc1)C1CCCCC1 | 42.8 (≈ 128 µM)
12 | CC(=O)N(Nc1ccccc1)c1ccccc1 | > 33.9
13 | O=C(Cc1ccc(F)cc1)N1CCN(c2ccc(F)cc2)CC1 | > 47.5
14 | COc1ccc(NC(=O)COC(=O)C23CC4CC(CC(O)(C4)C2)C3)cc1Cl | > 59.1
15 | CCCCN1C(=O)N(C)C2NC(=S)NC21 (stereo not given) | > 34.2
16 | N=c1c2ccccc2nc2n1CCCCCCCCCCC2 | 34.6 (≈ 116 µM)
17 | COCCc1nnc(NC(=O)C(C)C)s1 | > 34.4
18 | CC(=O)c1sc(C(C)(C)C)cc1NC(=O)/C=C/C(=O)O | 40 (≈ 135 µM)

Row | Compound | solubility kinetic [µg/mL]
19 | COC(=O)CNC(=O)/C=C/c1cc(Br)ccc1OC | 38.1 (≈ 116 µM)
20 | Cc1c(Cl)cccc1NC(=O)C1CCN(S(C)(=O)=O)CC1 | 16.9 (≈ 51.1 µM)
21 | COc1ccc(S(=O)(=O)N(C)CC(=O)NC2CC2)cc1OC | > 49.3
22 | COc1ccc(S(=O)(=O)N(C)CC(=O)N2CCCC2)cc1OC | > 51.4
23 | CC(C)CCn1c(N2CCCC2)nc2c1c(=O)n(C)c(=O)n2C | 46.6 (≈ 146 µM)
24 | O=C(CCc1c[nH]c2ccccc12)NCCc1ccccc1 | 28.5 (≈ 97.5 µM)
25 | CC12CCC(=O)N1C(C(=O)Nc1nc3ccccc3s1)CS2 (stereo not given) | 13 (≈ 39 µM)
26 | CC1CCCCN1CCn1c(=S)[nH]c2cc3c(cc2c1=O)OCO3 (stereo not given) | > 52.1
27 | O=C(/C=C/c1ccccc1Cl)NC1CCCCC1 | < 0.6
28 | CCCCCCN=C1CC(C)(C)CC(=O)/C1=C(/O)CCC | 19.5 (≈ 66.5 µM)
29 | Cc1ccsc1C(=O)OCC(=O)NCc1ccco1 | 41.1 (≈ 147 µM)
30 | CCN(CCCl)Cc1ccccc1Br.Cl | 42.1
31 | O=C(NC1CCN(C(=O)c2cccc([N+](=O)[O-])c2)CC1)c1ccccc1 | > 53
32 | COc1cc(-c2cc(C(=O)Nc3ccc(C)c(S(=O)(=O)N4CCOCC4)c3)c3ccccc3n2)cc(OC)c1OC | 6.7 (≈ 11.6 µM)
33 | Cn1cccc1C(C#N)(CC#N)c1cccc(F)c1C#N (stereo not given) | 40.4 (≈ 145 µM)
34 | CCN(CC(=O)Nc1c(F)cccc1F)C(=O)C1CC1 | 40.7 (≈ 144 µM)
35 | CCN(CC)S(=O)(=O)c1cccc(C(=O)N[C@H](C(=O)NC2=NCCS2)C(C)C)c1 | 64.5 (≈ 146 µM)

Second part, the compound after the results:

Row | solubility kinetic [µg/mL] | Compound
36 | 48.5 (≈ 141 µM) | OCCN1CCN(c2cc(C(F)(F)F)nc3c(F)cccc23)CC1
37 | 0.5 (≈ 1.6 µM) | CCSc1ncc(Cl)c(C(=O)Nc2ccccc2F)n1
38 | > 46.6 | CCCn1c(COc2ccc(C(=O)O)cc2)nc2ccccc21
39 | > 37.7 | O=C(OCCN1CCOCC1)c1ccc(O)cc1
40 | > 41.5 | CCCCOc1ccc(C2(C)NC(=O)N(C)C2=O)cc1 (stereo not given)
41 | > 49.5 | CC1Cc2ccccc2N1C(=O)COC(=O)c1ccc([N+](=O)[O-])o1 (stereo not given)
42 | 36.5 (≈ 144 µM) | c1ccc(OCc2nc(-c3ccncc3)no2)cc1
43 | 20.4 (≈ 57.1 µM) | Cc1cc(C)cc(OCC(=O)O/N=C(\N)Cc2ccc([N+](=O)[O-])cc2)c1
44 | 1.8 (≈ 4.51 µM) | COC(=O)c1cc(NC(=S)NC(=O)c2ccccc2)ccc1N1CCOCC1
45 | > 45.1 | NC1=NC(=Nc2cccc(S(N)(=O)=O)c2)c2ccccc21
46 | > 46.7 | COc1ccc(CN2C(=O)c3ccccc3C2=O)cc1C(=O)O
47 | > 46.7 | CC1CN(C(=O)c2ccc(Oc3ccccc3)cc2)CC(C)O1 (stereo not given)
48 | > 48.8 | O=C(NC1CC(=O)c2sccc21)c1cccc(C(F)(F)F)c1 (stereo not given)
49 | 1.9 (≈ 6.98 µM) | COC(=O)CSc1nc2ccc(C)cc2cc1C#N
50 | > 44.6 | C=CCn1cccc(C(=O)Nc2ccc(N(C)C)cc2)c1=O
51 | > 44.9 | O=C(CCCOc1ccccc1)NNC(=O)c1ccncc1
52 | 3.9 (≈ 10.3 µM) | Nc1nc(COC(=O)c2ccc3c(c2)OCCO3)nc(Nc2ccccc2)n1
53 | 23.7 (≈ 81.3 µM) | O=C(/C=C/c1ccccc1)NCCc1nc2ccccc2[nH]1
54 | > 45.2 | CC(=O)Nc1ccc(NC(=O)C2(C)CC2(Cl)Cl)cc1 (stereo not given)
55 | < 0.2 | COC(=O)c1cnc(Nc2ccc(Cl)cc2)c([N+](=O)[O-])c1
56 | 1 (≈ 3.9 µM) | Nc1nc(Cl)cc(Oc2ccc(Cl)cc2)n1
57 | 46.6 (≈ 132 µM) | CCOCCCNC(=O)CN1CCN(Cc2ccc(Cl)cc2)C1=O
58 | > 52.7 | O=C(CSCc1ccc(Br)cc1)NCc1ccccn1
59 | > 59 | Cc1cccc(N2CC(C(=O)Nc3ccccc3N3CCOCC3)CC2=O)c1C (stereo not given)
60 | < 0.2 | Cc1cc(/C=C2\SC(=O)NC2=O)c(C)n1-c1ccc(N(C)C)cc1

Row | solubility kinetic [µg/mL] | Compound
61 | 33.5 (≈ 96.7 µM) | COc1ccc(-c2cc(C(=O)N3CCCCC3)c3ccccc3n2)cc1
62 | 0.8 (≈ 2.3 µM) | COc1cccc(NC(=O)Cn2cc(C(=O)C3CC3)c3ccccc32)c1
63 | 36.3 (≈ 117 µM) | Cc1ccc(C)c(NS(=O)(=O)c2csc(C(N)=O)c2)c1
64 | < 0.4 | Cc1oc(S(=O)(=O)N(C)C)cc1C(=O)Nc1ccc(Cl)cc1
65 | > 42.9 | Cc1cc(=O)oc(C)c1C(=O)Nc1ccc(N(C)C)cc1
66 | < 0.7 | COc1ccc(NC(=O)c2ccc(F)c(F)c2)c2ccccc12
67 | < 0.8 | CCOc1ccc(N/C=C/C(=O)c2cc(OC)c(OC)c(OC)c2)cc1
68 | > 47.2 | Cc1ccc(NC(=O)CN(C)C(=O)Cc2ccccc2F)cc1
69 | 0.6 (≈ 2.21 µM) | Fc1ccc(-c2csc(Nc3ccccn3)n2)cc1
70 | < 0.2 | Cc1ccc(C(C)C)c(OC/C(O)=C(\C#N)c2nc3ccccc3[nH]2)c1
71 | 13.7 (≈ 39.8 µM) | Cc1c(O)ccc(C(=O)CN2CCN(c3ccccc3F)CC2)c1O
72 | 50.4 (≈ 143 µM) | O=C(CSCc1ccccc1Cl)NCCSc1ccccn1
73 | 45 (≈ 148 µM) | CC(Sc1ncccn1)C(=O)Nc1ccc2c(c1)OCO2 (stereo not given)
74 | > 40.5 | O=C(Nc1c(O)c2ccccc2[nH]c1=O)c1ccco1
75 | > 48.7 | Cc1ccc(C)c(NC(=O)CCC(=O)N/N=C/c2cccnc2)c1
76 | 27.1 (≈ 100 µM) | COc1ccc(C(=O)O/N=C(\N)c2ccccc2)cc1
77 | 7.7 (≈ 43 µM) | c1ccc2c(c1)cnc1ccccc12
78 | 10 (≈ 22.5 µM) | COc1ccc(CCNC(=O)CN2C(=O)NC(c3ccccc3)(c3ccccc3)C2=O)cc1
79 | > 46.3 | CCN(Cc1cccc(F)c1)C(=O)c1ccc2ccccc2n1
80 | > 35.9 | N#Cc1c(Nc2ccccc2)c(C=O)c[nH]c1=O
81 | > 41 | COc1ccc(CCNC(=O)c2cc(C)oc2C)cc1
82 | 0.6 (≈ 1.65 µM) | COc1ccc(Nc2ncnc3sc(-c4ccccc4)cc23)c(OC)c1
83 | 10.5 (≈ 29.6 µM) | N#Cc1ccsc1NC(=O)COC(=O)c1ccc(Br)o1
84 | < 0.8 | CCC(C)NC(=O)Cc1c(OC)ccc2cc(Br)ccc12 (stereo not given)
85 | 0.7 (≈ 2.39 µM) | Cc1[nH]c(=O)c(C#N)cc1-c1csc(-c2ccccc2)n1
